Laboratory results from US20080096969A1, “N alpha-(Menthanecarbonyl)amino acid amides and use thereof as physiological cooling active ingredients” (SYMRISE GMBH & CO. KG, priority 2006, published 2008).

Columns and labels:
[1] = Organoleptic test of cooling action in confectioner's fondant by a panel of experts; assay type: in vivo; settings: 0.05 wt. % relative to the overall preparation, scale from 1 (no cooling action) to 9 (extremely strong cooling action)
Protocol: The compounds were tested for their organoleptic properties, in particular their cooling action. To this end, they were dissolved, in each case in a specific final concentration, in a mass prepared from sucrose (saccharose) and water (confectioner's fondant, supplier Nordzucker A G, Nordstemmen) and evaluated by a panel of experts. Sensory impressions were rated and the cooling action was assessed on a scale from 1 (no cooling action) to 9 (extremely strong cooling action).

[2] = study of approx. 1200 compounds; cited from earlier work
[3] = forms the free acid N-(L-menthanecarbonyl)glycine; cited from earlier work

SMILES | cooling action [1] | cooling action (literature) [2] | susceptibility to hydrolysis [3]
CC(C)CNC(=O)CNC(=O)[C@@H]1C[C@H](C)CC[C@H]1C(C)C [Example 1, L-N^α-(menthanecarboxyl)glycine-N-isobutylamide] | 5 | – | –
CC1CCC(C(C)C)C(C(=O)NCC(=O)O)C1 [N-(L-menthanecarbonyl)glycine] | – | very weak cooling action | –
CCNC(=O)C1CC(C)CCC1C(C)C [WS3, L-menthane carboxylic acid N-ethylamide] | – | most strongly cooling active ingredients | –
CCOC(=O)CNC(=O)C1CC(C)CCC1C(C)C [WS5, N^α-(L-menthanecarbonyl)glycine ethyl ester] | – | most strongly cooling active ingredients | susceptible to hydrolysis
